Laboratory results reported in PubChem BioAssay (NCI).
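All cell lines were grown in 96-well plates and treated with compound for 48 hours. Here, GI50 denotes the concentration required for 50% inhibition of growth. TGI: total growth inhibition.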

What was measured:
Assay in all cases: DTP human tumour cell line panel, 48 h
[1] = system: SK-MEL-2 melanoma
[2] = system: A498 renal
[3] = system: UO-31 renal
[4] = system: SF-268 CNS
[5] = system: 786-0 renal
[6] = system: LOX IMVI melanoma
[7] = system: SK-OV-3 ovarian
[8] = system: SW-620 colon
[9] = system: CAKI-1 renal
[10] = system: NCI-H226 lung
[11] = system: NCI-H460 lung
[12] = system: RPMI-8226 leukemia
[13] = system: NCI-H522 lung
[14] = system: NCI-H23 lung
[15] = system: HCC-2998 colon
[16] = system: PC-3 prostate
[17] = system: OVCAR-5 ovarian
[18] = system: DU-145 prostate
[19] = system: HS 578T breast
[20] = system: A549 NSCLC
[21] = system: OVCAR-8 ovarian
[22] = system: SN12C renal
[23] = system: HT29 colon
[24] = system: KM12 colon
[25] = system: UACC-257 melanoma
[26] = system: IGROV1 ovarian
[27] = system: SNB-75 CNS
[28] = system: SF-295 CNS
[29] = system: HOP-62 NSCLC
[30] = system: MDA-MB-231 breast
[31] = system: MDA-MB-435
[32] = system: CCRF-CEM leukemia
[33] = system: OVCAR-3 ovarian
[34] = system: RXF 393 renal
[35] = system: EKVX NSCLC
[36] = system: HOP-92 NSCLC
[37] = system: COLO 205 colon
[38] = system: OVCAR-4 ovarian
[39] = system: T-47D breast
[40] = system: HCT-15 colon
[41] = system: M14 melanoma
[42] = system: SK-MEL-28 melanoma
[43] = system: NCI/ADR-RES ovarian
[44] = system: MALME-3M melanoma
[45] = system: K-562 leukemia
[46] = system: BT-549 breast
[47] = system: UACC-62 melanoma
[48] = system: MCF7 breast
[49] = system: MOLT-4 leukemia
[50] = system: ACHN renal
[51] = system: U251 CNS
[52] = system: TK-10 renal
[53] = system: HL-60(TB) leukemia
[54] = system: SK-MEL-5 melanoma
[55] = system: SNB-19 CNS
[56] = system: SF-539 CNS
[57] = system: HCT-116 colon

COc1ccc2c(c1)CCC1C2CCC2(C)C(NC(=O)CCCCC3CCSS3)CCC12 (centres undefined) was tested. Which GI50 [1] did it give?
Its GI50 is 53.5 µM.

What about the TGI [1] of the same molecule?
The TGI was over 100 µM.

And the GI50 [2]?
The GI50 was 62.2 µM.

And the TGI [2]?
Its TGI is over 100 µM.

And the GI50 [3]?
Its GI50 is 6.7 µM.

What about the TGI [3] of the same molecule?
Its TGI is over 100 µM.

What about the GI50 [4] of the same molecule?
Its GI50 is 6.85 µM.

And the TGI [4]?
The TGI was over 100 µM.

What about the GI50 [5] of the same molecule?
The GI50 was over 100 µM.

What about the TGI [5] of the same molecule?
Its TGI is over 100 µM.

And the GI50 [6]?
The GI50 was 32.5 µM.

What about the TGI [6] of the same molecule?
The TGI was over 100 µM.

What about the GI50 [7] of the same molecule?
The GI50 was 43.8 µM.

What about the TGI [7] of the same molecule?
Its TGI is over 100 µM.

And the GI50 [8]?
The GI50 was over 100 µM.

What about the TGI [8] of the same molecule?
The TGI was over 100 µM.

And the GI50 [9]?
Its GI50 is 23.9 µM.

And the TGI [9]?
Its TGI is over 100 µM.

And the GI50 [10]?
Its GI50 is over 100 µM.

What about the TGI [10] of the same molecule?
Its TGI is over 100 µM.

What about the GI50 [11] of the same molecule?
Its GI50 is 4.84 µM.

And the TGI [11]?
Its TGI is 93.3 µM.

And the GI50 [12]?
The GI50 was 5.85 µM.

And the TGI [12]?
The TGI was over 100 µM.

And the GI50 [13]?
The GI50 was 9.4 µM.

What about the TGI [13] of the same molecule?
The TGI was over 100 µM.

And the GI50 [14]?
Its GI50 is over 100 µM.

What about the TGI [14] of the same molecule?
The TGI was over 100 µM.

And the GI50 [15]?
Its GI50 is 30.7 µM.

And the TGI [15]?
The TGI was over 100 µM.

And the GI50 [16]?
The GI50 was 7.18 µM.

What about the TGI [16] of the same molecule?
The TGI was over 100 µM.

And the GI50 [17]?
The GI50 was over 100 µM.

What about the TGI [17] of the same molecule?
The TGI was over 100 µM.

What about the GI50 [18] of the same molecule?
Its GI50 is over 100 µM.

What about the TGI [18] of the same molecule?
Its TGI is over 100 µM.

And the GI50 [19]?
Its GI50 is over 100 µM.

What about the TGI [19] of the same molecule?
The TGI was over 100 µM.

And the GI50 [20]?
Its GI50 is 32.5 µM.

What about the TGI [20] of the same molecule?
Its TGI is over 100 µM.

And the GI50 [21]?
Its GI50 is over 100 µM.

And the TGI [21]?
Its TGI is over 100 µM.

And the GI50 [22]?
Its GI50 is 16.4 µM.

What about the TGI [22] of the same molecule?
The TGI was over 100 µM.

What about the GI50 [23] of the same molecule?
The GI50 was 4.3 µM.

What about the TGI [23] of the same molecule?
Its TGI is 39.2 µM.

And the GI50 [24]?
The GI50 was 4.54 µM.

What about the TGI [24] of the same molecule?
The TGI was over 100 µM.

What about the GI50 [25] of the same molecule?
Its GI50 is 31.8 µM.

And the TGI [25]?
Its TGI is over 100 µM.

What about the GI50 [26] of the same molecule?
Its GI50 is 4.92 µM.

And the TGI [26]?
Its TGI is over 100 µM.

And the GI50 [27]?
The GI50 was 18.2 µM.

And the TGI [27]?
The TGI was over 100 µM.

And the GI50 [28]?
The GI50 was over 100 µM.

And the TGI [28]?
The TGI was over 100 µM.

And the GI50 [29]?
Its GI50 is over 100 µM.

And the TGI [29]?
The TGI was over 100 µM.

What about the GI50 [30] of the same molecule?
Its GI50 is 14.1 µM.

And the TGI [30]?
Its TGI is over 100 µM.

What about the GI50 [31] of the same molecule?
Its GI50 is 9.3 µM.

And the TGI [31]?
Its TGI is over 100 µM.

And the GI50 [32]?
Its GI50 is 6.26 µM.

And the TGI [32]?
The TGI was over 100 µM.

What about the GI50 [33] of the same molecule?
The GI50 was 12.6 µM.

What about the TGI [33] of the same molecule?
Its TGI is over 100 µM.

And the GI50 [34]?
Its GI50 is 27 µM.

What about the TGI [34] of the same molecule?
Its TGI is over 100 µM.

What about the GI50 [35] of the same molecule?
The GI50 was over 100 µM.

And the TGI [35]?
The TGI was over 100 µM.

And the GI50 [36]?
Its GI50 is 4.16 µM.

What about the TGI [36] of the same molecule?
Its TGI is 63.4 µM.

What about the GI50 [37] of the same molecule?
The GI50 was 5.49 µM.

What about the TGI [37] of the same molecule?
Its TGI is over 100 µM.

And the GI50 [38]?
Its GI50 is 23 µM.

And the TGI [38]?
The TGI was over 100 µM.

And the GI50 [39]?
The GI50 was 3.56 µM.

And the TGI [39]?
The TGI was over 100 µM.

And the GI50 [40]?
The GI50 was 8.21 µM.

And the TGI [40]?
Its TGI is over 100 µM.

And the GI50 [41]?
The GI50 was 16.8 µM.

And the TGI [41]?
Its TGI is over 100 µM.

What about the GI50 [42] of the same molecule?
Its GI50 is 25.6 µM.

What about the TGI [42] of the same molecule?
The TGI was over 100 µM.

And the GI50 [43]?
The GI50 was over 100 µM.

What about the TGI [43] of the same molecule?
The TGI was over 100 µM.

What about the GI50 [44] of the same molecule?
The GI50 was 92.2 µM.

What about the TGI [44] of the same molecule?
The TGI was over 100 µM.

What about the GI50 [45] of the same molecule?
Its GI50 is 5.81 µM.

And the TGI [45]?
Its TGI is over 100 µM.

And the GI50 [46]?
Its GI50 is over 100 µM.

And the TGI [46]?
The TGI was over 100 µM.

What about the GI50 [47] of the same molecule?
The GI50 was 15 µM.

What about the TGI [47] of the same molecule?
Its TGI is over 100 µM.

What about the GI50 [48] of the same molecule?
Its GI50 is 39.7 µM.

And the TGI [48]?
The TGI was over 100 µM.

What about the GI50 [49] of the same molecule?
Its GI50 is 4.15 µM.

And the TGI [49]?
Its TGI is over 100 µM.

And the GI50 [50]?
Its GI50 is 27.6 µM.

What about the TGI [50] of the same molecule?
Its TGI is over 100 µM.

What about the GI50 [51] of the same molecule?
The GI50 was 17.5 µM.

And the TGI [51]?
Its TGI is over 100 µM.

What about the GI50 [52] of the same molecule?
The GI50 was 16.1 µM.

What about the TGI [52] of the same molecule?
The TGI was over 100 µM.

What about the GI50 [53] of the same molecule?
Its GI50 is 3.75 µM.

And the TGI [53]?
Its TGI is over 100 µM.

What about the GI50 [54] of the same molecule?
The GI50 was 3.26 µM.

And the TGI [54]?
The TGI was 20.3 µM.

And the GI50 [55]?
The GI50 was over 100 µM.

What about the TGI [55] of the same molecule?
Its TGI is over 100 µM.

And the GI50 [56]?
Its GI50 is over 100 µM.

What about the TGI [56] of the same molecule?
Its TGI is over 100 µM.

What about the GI50 [57] of the same molecule?
Its GI50 is 11.2 µM.

And the TGI [57]?
Its TGI is over 100 µM.
